The text below walks through data of patent publication US20030114362A1, “Penta-or tetrapeptide binding to somatostatin receptors and the use of the same” (Novaspin Biotech GmbH, priority 2001, published 2003).

Starred links: 1 amine or outer side, 2 acyl side, 3 side chain; linkers in the order of their positions; H or OH if unused. Non-standard residues stand in square brackets, D forms with d. Residues, ends and D or L forms follow the SMILES beside them. ξ: configuration not given here. *: point of attachment. X3 = CC1(C)O[C@H]2O[C@H](C(=O)[*:2])[C@@H](N[*:1])[C@H]2O1; X1 = CC1(C)OC2[C@H](OC(C(O)C(=O)[*:2])[C@H]2N[*:1])O1; X2 = CC1(C)OC2[C@H](O[C@H](C(=O)[*:2])[C@H]2N[*:1])O1; Bip = N[C@@H](Cc1ccc(-c2ccccc2)cc1)C(=O)O; Trt = c1ccc(C(c2ccccc2)(c2ccccc2)*)cc1; Bta = N[C@@H](Cc1csc2ccccc12)C(=O)O; ξW = NC(Cc1c[nH]c2ccccc12)C(=O)O; Thr(3ξ) = CC(O)[C@H](N)C(=O)O; ξY = NC(Cc1ccc(O)cc1)C(=O)O; Nle = CCCC[C@H](N)C(=O)O; ξF = NC(Cc1ccccc1)C(=O)O; ξK = NCCCCC(N)C(=O)O; Bn = c1ccc(C*)cc1

Test [1] relates to A431 and Panc-1. Particulars: number of cell deaths after 6 h of incubation. The procedure:
The Compounds shown below were tested on two cell-lines, A431 (A. T. C. C. reference No. CRL-1555, c.f. American Type Culture Collection, http://phage.atcc.org/cgi-bin/searchengine/longview.cgi?view=ce,663682,CRL-1555&text=a-431, 2001, pp. http://phage.atcc.org/cgi-bin/searchengine/longview.cgi?view-ce,663682,CRL-661555&text=a-663431; http://phage.atcc.org/cgi-bin/searchengine/longview.cgi?view=ce,663682,CRL-661555&text=a-663431) (an epidermoid cancer) and Panc-1 (A.T.C.C. reference No. CRL-1469, c.f. American Type Culture Collection, http://phage.atcc.org/cgi-bin/searchengine/longview.egi?view=ce,609764,CRL-1469&text=panc-1) (a well differentiated pancreatic adenocarcinoma), both of human origin, using the MTT (Carmichael J et al. Cancer Res. 47(4): pp. 936-42, 1987.) and MB (Oliver M H, Harrison N K, Bishop J E, Cole P J, Laurent G J; J Cell Sci 1989 March;92 ( Pt 3):513-8) assays. [drawing 25]
Each compound was tested under […]: 6 h (to exclude necrosis) and 48 h to see inhibition of proliferation and apoptosis.

Test [2] concerns A431 (an epidermoid cancer). Particulars: A431, MB and MTT assays. (In general: Tetrazolium dyes change colour on reduction, which living cells bring about.)
Method: (§3) Each compound was tested under 4 conditions: 6 h (to exclude necrosis) and 48 h to see inhibition of proliferation and apoptosis.
Test [3] deals with Panc-1 (a well differentiated pancreatic adenocarcinoma). Particulars: Panc-1, MB and MTT assays.
Method: as §3
For test [4], the system named is Substance P release from sensory nerve terminals. Kind of test: Release of Substance P in vitro from electrically stimulated rat tracheae (RIA). The note with it: for Substance P release, stim. / inhibition of Substance P release / Substance P release, post stim. / Substance P release, pre stim.: 500 nmol; for Substance P release, stim.: electrical field stimulation 40 V, 0.1 ms, 10 Hz, 120 s; for Substance P release, stim. / Substance P release, post stim. / Substance P release, pre stim.: released amount of peptide per tissue weight; for inhibition of Substance P release: electrically evoked release; for Substance P release, post stim.: poststimulated fraction; for Substance P release, pre stim.: prestimulated fraction; for Substance P release evoked by electrical stimulation of sensory nerve terminals (in words): compared with TT-232. As to the method: Effect of TG, SGA, TR, and TT-232 on the Release of Substance P in vitro Methods:
After exsanguination the tracheae of 2-2 female Wistar rats were removed and perfused (1 ml min^−1) in an organ bath (1.8 ml) at 37° C. for 60 min with oxygenated (95% O2 and 5% CO2) Krebs solution of the following composition (in mM): NaCl 119, NaHCO3 25, KH2PO4 1.2, MgSO4 1.5, KCl 4.7, CaCl2 2.5, glucose 11. After stopping the flow the solution was changed 3 times for 8 min (prestimulated—stimulated—poststimulated). Electrical field stimulation (40 V, 0.1 ms, 10 Hz, 120 s) was performed to induce release of sensory neuropeptides from the tissue pieces in the presence or absence of SGTG, SGA, SGTH, or TT-232 (500-500 nM). The fractions were collected in ice-cold tubes and the wet weight of the tracheae were measured. Concentration of SP was determined by specific radioimmunoassay (RIA) methods developed in our laboratory (Németh, J., Oroszi, G., Thán, M., Helyes, Zs., Pintér, E., Farkas, B. and Szolcsányi, J.: Substance P radioimmunoassay for quantitative characterization of sensory neurotransmitter release. Neurobiology, 7, 437-444, 1999) and was expressed as the released amount of peptide per tissue weight.

Test [5] concerns multi-drug resistant cell line Klon 2 (10×80). Put plainly: XTT/PMS cytotoxicity assay, multidrug resistant hepatoma cells. Format: cell-based, rat. Particulars: 72 hrs incubation. The text has this:
(§1) Rat hepatoma cells were cultivated in a F 12 medium (GibcoBRL), to which 5% of foetal calf serum had been added, in a atmosphere saturated with humidity (>95%) and having a CO2 content of 8% in air. The cell line named “Klon 2” was isolated by Venetianer et al. (Cytogentc.Cell.Genet 28:280-283, 1980). The cell line 2 (10×80)T1 is a sub-clone of Klon 2 having a moderate multi-drug resistance 8 (Pirity, Hever-Szabo and Venetianer, Cytotechnology 19:207-214, 1996). The degree of resistance of cell line 2 (10×80) was determined by a Niagara blue exclusion test, the cells being exposed to different concentrations of the following cytostatic agents for 72 hrs.
(§2) The XTT/PMS Assay (Scuderio et al., Cancer Res. 48:4827-4833, 1988; Roehm et al., J.Immun.Methods 142:257-265, 1991) was utilised to determine the cytotoxicity of the compounds. For this purpose, the viability of the sensitive cell line Klon 2 was tested in comparison with that of the multi-drug resistant cell line Klon 2 (10×80). An identical number of cells was applied to a 96 cell culture plate. […] The cell viability was determined by triple determination for each concentration by means of the XTT/PMS dye test (Scuderio et al., Cancer Res. 48:4827-4833, 1988; Roehm et al., J.Immun.Methods 142:257-265,1991). […]

Test [6] has as its system sensitive cell line Klon 2. Kind of test: XTT/PMS cytotoxicity assay, drug sensitive hepatoma cells. The test is classed as cell-based, rat. The note with it: Klon 2, XTT/PMS, 72 hrs incubation.
From the text: as §1, §2

Consider `CC(OC(c1ccccc1)(c1ccccc1)c1ccccc1)[C@@H]1NC(=O)C(CCCCN)NC(=O)[C@@H](Cc2c[nH]c3ccccc23)NC(=O)C(Cc2ccccc2)NC(=O)C(O)C2O[C@@H]3OC(C)(C)OC3[C@@H]2NC1=O` (stereo partly drawn) [SGnc 18, c[-D-Trp-Lys-Thr(OTrt)-Z2-Phe-]] (cyclo([Thr(3ξ)](Trt)[X1][ξF][dW][ξK])), for which the Necrosis entry in test [1] is “some”. Moreover, the IC50 in test [2] and in test [3] was approximately 50 µM throughout.

c[-D-Trp-Lys-1-Nal-Z1-Phe-] [SGnc 15]: the Necrosis result in test [1] was “some”. The IC50 in test [2] and in test [3] was approximately 110 µM throughout.

Turning to `C[C@@H](OC(c1ccccc1)(c1ccccc1)c1ccccc1)C1NC(=O)[C@H](CCCCN)NC(=O)[C@H](Cc2ccc3ccccc3c2)NC(=O)[C@H](Cc2ccc(O)cc2)NC(=O)[C@H]2O[C@@H]3OC(C)(C)OC3[C@@H]2NC1=O` (some centres unmarked) [SGnc 10], the Necrosis entry in test [1] is on record as “some”. The IC50 in test [2] stood at 55 µM; in test [3], 40 µM.

On to `CC1(C)OC2[C@H](O[C@@H]3C(=O)N[C@@H](Cc4ccccc4)C(=O)N[C@@H](Cc4c[nH]c5ccccc45)C(=O)N[C@@H](CCCCN)C(=O)N[C@@H]23)O1` (stereo partly drawn) [SGA, cyclo[-Phe-Trp-Lys-Z1-]], for which, in test [4], the “Substance P release, stim.” value amounted to 4.81; the “inhibition of Substance P release” value worked out at 28.4%; the “Substance P release, post stim.” value is given as 2.07; the “Substance P release, pre stim.” value was 1.81. Also, the “Substance P release evoked by electrical stimulation of sensory nerve terminals (in words)” value in test [4] is given as “inhibited”.

As for `CC1(C)OC2[C@H](OC3C(O)C(=O)NC(Cc4ccccc4)C(=O)N[C@H](Cc4c[nH]c5ccccc45)C(=O)NC(CCCCN)C(=O)N[C@@H](Cc4ccc(-c5ccccc5)cc4)C(=O)N[C@H]32)O1` (stereo partly drawn) [SGnc 20, cyclo[-D-Trp-Lys-Thr(OTrt)-Z2-Phe-]] (cyclo([Bip][X1][ξF][dW][ξK])), in test [1], the Necrosis result is listed as “some”. For the same molecule, the IC50 in test [2] and in test [3] was approximately 60 µM throughout.

Consider c[-D-Trp-Lys-Bpa-Z1-Phe-] [SGnc 14], for which the Necrosis entry in test [1] is reported as “almost none”. The IC50 in test [2] and in test [3] was approximately 100 µM each time.

Regarding c[-Tyr-Trp-Lys-Thr-Z1-], the results for the IC50 in test [5] and in test [6] were 47 µM and 75 µM, respectively.

In the case of `CCCC[C@@H]1NC(=O)[C@@H](Cc2c[nH]c3ccccc23)NC(=O)[C@H](Cc2ccc(O)cc2)NC(=O)[C@H]2O[C@@H]3OC(C)(C)O[C@@H]3[C@@H]2NC(=O)[C@H]([C@@H](C)OC(c2ccccc2)(c2ccccc2)c2ccccc2)NC1=O` [SGnc 7, cyclo[-D-Trp-Nle-Thr(OTrt)-Z1-Tyr-]] (cyclo([Nle]T(Trt)[X3]Y[dW])), the Necrosis entry in test [1] was “none”. In addition, the IC50 in test [2] and in test [3] was 10 µM each time.

For the molecule `CC(OCc1ccccc1)[C@@H]1NC(=O)C(CCCCN)NC(=O)C(Cc2c[nH]c3ccccc23)NC(=O)C(Cc2ccc(O)cc2)NC(=O)[C@H]2O[C@@H]3OC(C)(C)OC3[C@@H]2NC1=O` (stereo partly drawn) [SGnc 38, cyclo[-D-Trp-Lys-Thr(OBzl)-Z1-Tyr-]] (cyclo([Thr(3ξ)](Bn)[X2][ξY][ξW][ξK])), the Necrosis entry in test [1] is “some”. Also, the IC50 in test [2] and in test [3] was approximately 50 µM in each case.

As to `CC1(C)OC2[C@H](O[C@@H]3C(=O)NC(Cc4ccc(O)cc4)C(=O)N[C@@H](Cc4csc5ccccc45)C(=O)NC(CCCCN)C(=O)N[C@@H](Cc4ccc(OCc5ccccc5)cc4)C(=O)N[C@@H]23)O1` (some centres unmarked) [SGnc 51] (cyclo([Bta][ξK]Y(Bn)[X2][ξY])), the Necrosis result in test [1] is given as “almost none”. Moreover, the IC50 in test [2] and in test [3] was 35 µM throughout.

In the case of c[-D-Trp-Lys-Thr(OTrt)-Z1-Tyr-], in test [5], the IC50 came to 25 µM. In test [6], this molecule gave an IC50 of 31 µM. Further, in test [4], the “Substance P release, stim.” value is listed as 5.14; the “inhibition of Substance P release” value worked out at 19.3%; the “Substance P release, post stim.” value stood at 2.31; the “Substance P release, pre stim.” value came to 1.76. Further, the “Substance P release evoked by electrical stimulation of sensory nerve terminals (in words)” value in test [4] is “inhibited”.

As to `C[C@@H](OC(c1ccccc1)(c1ccccc1)c1ccccc1)C1NC(=O)[C@H](CCCCN)NC(=O)[C@H](Cc2csc3ccccc23)NC(=O)[C@H](Cc2ccc(O)cc2)NC(=O)[C@H]2O[C@@H]3OC(C)(C)OC3[C@@H]2NC1=O` (some centres unmarked) [SGnc 8], the Necrosis entry in test [1] is given as “some”. In addition, the IC50 worked out at 50 µM in test [2] and 40 µM in test [3].

For the molecule `CC(OC(c1ccccc1)(c1ccccc1)c1ccccc1)[C@@H]1NC(=O)C(CCCCN)NC(=O)[C@@H](Cc2csc3ccccc23)NC(=O)C(Cc2ccc(O)cc2)NC(=O)[C@H]2O[C@@H]3OC(C)(C)OC3[C@@H]2NC1=O` (some centres unmarked) [SGnc 50], in test [1], the Necrosis result was “none”. In addition, the IC50 in test [2] and in test [3] was approximately 38 µM each time.

As usually defined, the IC50 is the concentration that gives 50% inhibition. A higher IC50 goes with weaker potency in that assay.
